The text below walks through data of patent US20080255117A1, “SULFONYLTRYPTOPHANOLS” (priority 2007, published 2008).

pIC50: −log10 of the molar value.

The assay has as its target T1, human FSH receptor (Homo sapiens, UniProt P23945).
T1 construct: expressed in transfected cells; host or cells: CHO cells (hFSHR clone 16)
T1 sequence (P23945 18-695): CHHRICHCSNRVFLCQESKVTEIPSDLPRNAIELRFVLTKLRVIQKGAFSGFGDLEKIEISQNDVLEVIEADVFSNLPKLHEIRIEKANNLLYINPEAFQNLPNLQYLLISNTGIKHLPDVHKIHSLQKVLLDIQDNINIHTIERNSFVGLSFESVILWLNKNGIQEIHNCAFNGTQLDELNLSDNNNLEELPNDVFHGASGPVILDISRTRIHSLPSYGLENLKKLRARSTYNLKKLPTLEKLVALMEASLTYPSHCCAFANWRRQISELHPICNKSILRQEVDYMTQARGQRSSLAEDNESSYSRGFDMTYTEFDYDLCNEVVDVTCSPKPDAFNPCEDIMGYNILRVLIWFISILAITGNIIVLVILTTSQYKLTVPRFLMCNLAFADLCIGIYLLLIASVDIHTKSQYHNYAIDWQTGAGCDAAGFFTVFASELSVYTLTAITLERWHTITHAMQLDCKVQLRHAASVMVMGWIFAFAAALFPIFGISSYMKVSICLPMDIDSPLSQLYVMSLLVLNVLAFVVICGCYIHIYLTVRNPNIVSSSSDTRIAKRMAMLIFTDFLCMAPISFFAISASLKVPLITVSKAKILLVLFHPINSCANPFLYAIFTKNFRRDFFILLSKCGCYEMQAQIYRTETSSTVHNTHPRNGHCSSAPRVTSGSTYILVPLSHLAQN
Briefly: HTRF assay for measuring cAMP in cells (FSH antagonism). It counts as cell-based. The note with it: FSH antagonistic effect in the HTRF assay; hFSHR clone 16 cells (CHO cells stably transfected with the human FSH receptor); in the presence of 1e-9 mol/l hFSH. The procedure:
HTRF Assay for Measuring cAMP in Cells
The method is based on a competitive immunoassay between native cAMP, which has been produced by the cells, and cAMP which is labelled with cAMPD2 conjugate. The tracer binding was visualized by a monoclonal antibody, anti-cAMP labelled with cryptate [HTRF=homogeneous time-resolved fluorescence].
The specific signal is inversely proportional to the cAMP concentration of the samples employed.
The 665 nm/620 nm fluorescence ratio was evaluated.
The following material was used: 96-well plates for the tissue culture, 96-well plates with black edge and black base (e.g. Fluotrac 600 from Greiner), 96-well plates for the substance dilutions of polypropylene and cAMP Femtomolar (4000 wells Kit, CIS Bio International # 62AM5PEJ).
The following reagents were used: BSA (bovine serum albumin) Fraction V protease-free, IBMX (3-isobutyl-1-methylxanthine), hFSH (human follicle stimulating hormone), Triton X-100 analytical grade, potassium fluoride analytical grade, G 418 (Geneticin) and Accutase.
Buffer 1 (washing and testing buffer) contained PBS, 1 mM CaCl2, 1 mM MgCl2, 0.2% glucose; 0.1% BSA, 1 mM IBMX. […]
The values of the well ratio were averaged and then entered directly in SigmaPlot versus the concentrations. The maximum and minimum values were determined for each plate, and half the difference is to be regarded as IC50.

On to `O=S(=O)(N[C@@H](CO)Cc1c[nH]c2ccccc12)c1cc(-c2ccc3ncccc3c2)cc2c1OCC2` [Example 39, 5-Quinolin-6-yl-2,3-dihydro-benzofuran-7-sulfonic acid [(R)-2-hydroxy-1-(1H-indol-3-ylmethyl)-ethyl]-amide], for which the pIC50 was 5.30. The figure for `N#CCc1ccc(-c2cc3c(c(S(=O)(=O)N[C@@H](CO)Cc4c[nH]c5ccccc45)c2)OCC3)cc1` [Example 52, 5-(4-Cyanomethyl-phenyl)-2,3-dihydro-benzofuran-7-sulfonic acid [(R)-2-hydroxy-1-(1H-indol-3-ylmethyl)-ethyl]-amide] is 5.00.

For orientation: pIC50 means the negative decadic logarithm of the IC50, by convention in mol/L.
